Test results reported in ChEMBL document CHEMBL1140526, “Effect of varying the 4''-position of arbekacin derivatives on antibacterial activity against MRSA and Pseudomonas aeruginosa” (2007).
In brackets after ≈: the same amount, converted by molar mass.

Columns and labels:
Assay type in all cases: functional
Pseudomonas aeruginosa [1] = test: Antibacterial activity against Pseudomonas aeruginosa GN315
Pseudomonas aeruginosa [2] = test: Antibacterial activity against Pseudomonas aeruginosa N101
Staphylococcus aureus [3] = test: Antibacterial activity against Staphylococcus aureus 209P JC-1
Staphylococcus aureus [4] = test: Antibacterial activity against methicillin-resistant Staphylococcus aureus MSC03571
Pseudomonas aeruginosa [5] = test: Antibacterial activity against Pseudomonas aeruginosa PA01
Escherichia coli = test: Antibacterial activity against Escherichia coli NIH JC2
Staphylococcus aureus [6] = test: Antibacterial activity against methicillin-resistant Staphylococcus aureus MF490
Pseudomonas aeruginosa [7] = test: Antibacterial activity against Pseudomonas aeruginosa isolates
Staphylococcus aureus [8] = test: Antibacterial activity against methicillin resistant Staphylococcus aureus isolates

SMILES | MIC (Pseudomonas aeruginosa [1]) | MIC (Pseudomonas aeruginosa [2]) | MIC (Staphylococcus aureus [3]) | MIC (Staphylococcus aureus [4]) | MIC (Pseudomonas aeruginosa [5]) | MIC (Escherichia coli) | MIC (Staphylococcus aureus [6]) | MIC50 (Pseudomonas aeruginosa [7]) | MIC90 (Pseudomonas aeruginosa [7]) | MIC50 (Staphylococcus aureus [8]) | MIC90 (Staphylococcus aureus [8])
[N-]=[N+]=N[C@@H]1[C@H](N)[C@@H](O)[C@@H](O[C@@H]2[C@@H](O)[C@H](O[C@H]3O[C@H](CN)CC[C@H]3N)[C@@H](N)C[C@H]2NC(=O)[C@@H](O)CCN)O[C@@H]1CO | 64 µg/mL (≈ 111 µM) | 0.5 µg/mL (≈ 0.866 µM) | 0.13 µg/mL (≈ 0.225 µM) | 128 µg/mL (≈ 222 µM) | 16 µg/mL (≈ 27.7 µM) | 2 µg/mL (≈ 3.46 µM) | > 128 µg/mL | – | – | – | –
NCC[C@H](O)C(=O)N[C@@H]1C[C@H](N)[C@@H](O[C@H]2O[C@H](CN)CC[C@H]2N)[C@@H](F)[C@H]1O[C@H]1O[C@H](CO)[C@H](O)[C@H](N)[C@H]1O | 32 µg/mL (≈ 57.7 µM) | 0.5 µg/mL (≈ 0.902 µM) | 0.06 µg/mL (≈ 0.108 µM) | 2 µg/mL (≈ 3.61 µM) | 2 µg/mL (≈ 3.61 µM) | 1 µg/mL (≈ 1.8 µM) | 4 µg/mL (≈ 7.21 µM) | – | – | – | –
NCC[C@H](O)C(=O)N[C@@H]1C[C@H](N)[C@@H](O[C@H]2O[C@H](CN)CC[C@H]2N)[C@H](O)[C@H]1O[C@H]1O[C@H](CO)[C@H](N)[C@H](N)[C@H]1O | > 128 µg/mL | 8 µg/mL (≈ 14.5 µM) | 4 µg/mL (≈ 7.25 µM) | > 128 µg/mL | 64 µg/mL (≈ 116 µM) | 16 µg/mL (≈ 29 µM) | > 128 µg/mL | – | – | – | –
NCC[C@H](O)C(=O)N[C@@H]1C[C@H](N)[C@@H](O[C@H]2O[C@H](CN)CC[C@H]2N)[C@H](O)[C@H]1O[C@H]1O[C@@H](CO)[C@@H](O)[C@H](N)[C@H]1O | 8 µg/mL (≈ 14.5 µM) | 0.25 µg/mL (≈ 0.452 µM) | 0.06 µg/mL (≈ 0.109 µM) | 2 µg/mL (≈ 3.62 µM) | 2 µg/mL (≈ 3.62 µM) | 1 µg/mL (≈ 1.81 µM) | 2 µg/mL (≈ 3.62 µM) | – | – | – | –
NCC[C@H](O)C(=O)N[C@@H]1C[C@H](N)[C@@H](O[C@H]2O[C@H](CN)CC[C@H]2N)[C@H](O)[C@H]1O[C@H]1O[C@H](CO)C[C@H](N)[C@H]1O | 32 µg/mL (≈ 59.6 µM) | 0.5 µg/mL (≈ 0.932 µM) | 0.13 µg/mL (≈ 0.242 µM) | 64 µg/mL (≈ 119 µM) | 4 µg/mL (≈ 7.45 µM) | 2 µg/mL (≈ 3.73 µM) | > 64 µg/mL | – | – | – | –
NCC[C@H](O)C(=O)N[C@@H]1C[C@H](N)[C@@H](O[C@H]2O[C@H](CN)CC[C@H]2N)[C@@H](Cl)[C@H]1O[C@H]1O[C@H](CO)[C@H](O)[C@H](N)[C@H]1O | > 32 µg/mL | 0.5 µg/mL (≈ 0.876 µM) | 0.13 µg/mL (≈ 0.228 µM) | 2 µg/mL (≈ 3.5 µM) | 4 µg/mL (≈ 7 µM) | 1 µg/mL (≈ 1.75 µM) | 2 µg/mL (≈ 3.5 µM) | – | – | – | –
[N-]=[N+]=N[C@H]1[C@@H](O[C@H]2O[C@H](CO)[C@H](O)[C@H](N)[C@H]2O)[C@H](NC(=O)[C@@H](O)CCN)C[C@H](N)[C@H]1O[C@H]1O[C@H](CN)CC[C@H]1N | 128 µg/mL (≈ 222 µM) | 0.5 µg/mL (≈ 0.866 µM) | 0.25 µg/mL (≈ 0.433 µM) | 4 µg/mL (≈ 6.92 µM) | 8 µg/mL (≈ 13.8 µM) | 1 µg/mL (≈ 1.73 µM) | 4 µg/mL (≈ 6.92 µM) | – | – | – | –
CNC[C@@H]1CC[C@@H](N)[C@@H](O[C@H]2[C@@H](O)[C@@H](O[C@H]3O[C@H](CO)[C@H](O)[C@H](N)[C@H]3O)[C@H](NC(=O)[C@@H](O)CCN)C[C@@H]2N)O1 | 4 µg/mL (≈ 7.06 µM) | 0.5 µg/mL (≈ 0.882 µM) | 0.13 µg/mL (≈ 0.229 µM) | 1 µg/mL (≈ 1.76 µM) | 2 µg/mL (≈ 3.53 µM) | 1 µg/mL (≈ 1.76 µM) | 4 µg/mL (≈ 7.06 µM) | – | – | – | –
NCC[C@H](O)C(=O)N[C@@H]1C[C@H](N)[C@@H](O[C@H]2O[C@H](CN)CC[C@H]2N)[C@@H](N)[C@H]1O[C@H]1O[C@H](CO)[C@H](O)[C@H](N)[C@H]1O | > 64 µg/mL | 1 µg/mL (≈ 1.81 µM) | 0.25 µg/mL (≈ 0.453 µM) | 4 µg/mL (≈ 7.25 µM) | 4 µg/mL (≈ 7.25 µM) | 2 µg/mL (≈ 3.63 µM) | 4 µg/mL (≈ 7.25 µM) | – | – | – | –
NCC[C@H](O)C(=O)N[C@@H]1C[C@H](N)[C@@H](O[C@H]2O[C@H](CN)CC[C@H]2N)[C@@H](O)[C@H]1O[C@H]1O[C@H](CO)[C@H](O)[C@H](N)[C@H]1O | 16 µg/mL (≈ 29 µM) | 0.25 µg/mL (≈ 0.452 µM) | 0.06 µg/mL (≈ 0.109 µM) | 1 µg/mL (≈ 1.81 µM) | 1 µg/mL (≈ 1.81 µM) | 0.5 µg/mL (≈ 0.905 µM) | 1 µg/mL (≈ 1.81 µM) | 1 µg/mL (≈ 1.81 µM) | 4 µg/mL (≈ 7.24 µM) | 0.25 µg/mL (≈ 0.452 µM) | 0.25 µg/mL (≈ 0.452 µM)
NCC[C@H](O)C(=O)N[C@@H]1C[C@H](N)[C@@H](O[C@H]2O[C@H](CN)CC[C@H]2N)[C@H](O)[C@H]1O[C@H]1O[C@H](CO)[C@@H](O)[C@H](N)[C@H]1O [ARBEKACIN] | 16 µg/mL (≈ 29 µM) | 0.25 µg/mL (≈ 0.452 µM) | 0.06 µg/mL (≈ 0.109 µM) | 16 µg/mL (≈ 29 µM) | 2 µg/mL (≈ 3.62 µM) | 1 µg/mL (≈ 1.81 µM) | 64 µg/mL (≈ 116 µM) | 2 µg/mL (≈ 3.62 µM) | 16 µg/mL (≈ 29 µM) | 0.5 µg/mL (≈ 0.905 µM) | 2 µg/mL (≈ 3.62 µM)
NCC[C@H](O)C(=O)N[C@@H]1C[C@H](N)[C@@H](O[C@H]2O[C@H](CN)CC[C@H]2N)[C@H](O)[C@H]1O[C@H]1O[C@H](CO)[C@H](O)[C@H](N)[C@H]1O | 32 µg/mL (≈ 57.9 µM) | 0.25 µg/mL (≈ 0.452 µM) | 0.13 µg/mL (≈ 0.235 µM) | 16 µg/mL (≈ 29 µM) | 4 µg/mL (≈ 7.24 µM) | 1 µg/mL (≈ 1.81 µM) | 32 µg/mL (≈ 57.9 µM) | – | – | – | –
